Laboratory results reported in patent publication US9949479B2 (priority 2015, dated 2018).
Converted amounts (≈) assume the structure as drawn. “And” between values parts separate entries of the source, which are not always exact repeats. Equal entries are not always repeated. Where two headings read alike, the source gives them in different places.

Columns and labels:
Fusarium graminearum = experiment: microbe, parasite or virus in culture; assay type: cell-based
Fusarium asiaticum = experiment: microbe, parasite or virus in culture; assay type: cell-based
[1] = system: DON toxin biosynthesis of carbendazim-resistant fusarium asiaticum; experiment: microbe, parasite or virus in culture; assay type: cell-based
powdery mildew fungus = assay type: in vivo; details: seed treatment; dose as in E133
powdery mildew [2] = assay type: in vivo; details: dose as in E145
rust [3] = assay type: in vivo; details: dose as in E145
[4] = design: species or system wheat; details: in vivo
leaf blight [5] = assay type: in vivo; details: dose as in E154
rust [6] = assay type: in vivo; details: dose as in E154
wheat scab [7] = assay type: in vivo, Fusarium spp.
leaf blight [8] = assay type: in vivo
powdery mildew [9] = assay type: in vivo
rust [10] = assay type: in vivo
[11] = assay type: in vivo, wheat
wheat scab [12] = assay type: in vivo, Fusarium spp.; remark: listed apart in the source
leaf blight [13] = assay type: in vivo; remark: listed apart in the source
powdery mildew [14] = assay type: in vivo; remark: listed apart in the source
leaf blight [15] = assay type: in vivo; remark: listed apart in the source
powdery mildew [16] = assay type: in vivo; remark: listed apart in the source
rust [17] = assay type: in vivo; remark: listed apart in the source
[18] = design: species or system wheat; details: in vivo; remark: listed apart in the source
wheat scab [19] = assay type: in vivo, Fusarium spp.; details: Serial 6: preparation 100 g/mu; jinggangmycin 0, metconazole 20 g ai./mu
leaf blight [20] = assay type: in vivo; details: Serial 6: preparation 100 g/mu; jinggangmycin 0, metconazole 20 g ai./mu
rust [21] = assay type: in vivo; details: Serial 6: preparation 100 g/mu; jinggangmycin 0, metconazole 20 g ai./mu
leaf blight [22] = assay type: in vivo; details: Serial 6: preparation 100; jinggangmycin 0, metconazole 20 g ai./mu
powdery mildew [23] = assay type: in vivo; details: Serial 6: preparation 100; jinggangmycin 0, metconazole 20 g ai./mu
rust [24] = assay type: in vivo; details: Serial 6: preparation 100; jinggangmycin 0, metconazole 20 g ai./mu
[25] = assay type: in vivo, wheat; remark: listed apart in the source
[26] = Fusarium graminearum, read-out: Growth Inhibition Rate F.g
[27] = Fusarium asiaticum, read-out: Growth Inhibition Rate F.a
[28] = Serial 21: metconazole 20 g ai./mu alone
[29] = Serial 22: metconazole 18 g ai./mu alone
[30] = Serial 23: metconazole 16 g ai./mu alone
[31] = Serial 24: metconazole 10 g ai./mu alone
[32] = Serial 25: metconazole 9 g ai./mu alone
[33] = Serial 26: metconazole 8 g ai./mu alone
[34] = Serial 27: metconazole 6 g ai./mu alone
[35] = Serial 28: metconazole 3 g ai./mu alone
[36] = Serial 9: preparation 100 g/mu, metconazole 20 g ai./mu alone
[37] = Serial 10: preparation 80 g/mu, metconazole 16 g ai./mu alone
[38] = Serial 11: preparation 40 g/mu, metconazole 8 g ai./mu alone
[39] = Serial 12: preparation 20 g/mu, metconazole 4 g ai./mu alone
[40] = Serial 8: preparation 50 g/mu, metconazole 10 g ai./mu alone
[41] = Serial 9: preparation 37.5 g/mu, metconazole 7.5 g ai./mu alone
[42] = Serial 10: preparation 15 g/mu, metconazole 3 g ai./mu alone
[43] = Serial 10: preparation 30 g/mu, metconazole 6 g ai./mu alone
[44] = Serial 11: preparation 22.5 g/mu, metconazole 4.5 g ai./mu alone
[45] = Serial 12: preparation 15 g/mu, metconazole 3 g ai./mu alone

Compound: CC1(C)CCC(Cc2ccc(Cl)cc2)C1(O)Cn1cncn1 (stereo not drawn) [Metconazole]
- ED50 (Fusarium graminearum; F.g sensitive strains): 0.117 µg/mL (≈ 0.366 µM)
- inhibition at 0.0625 µg/mL (Fusarium graminearum; [26]): 30.7%
- inhibition at 0.125 µg/mL (Fusarium graminearum; [26]): 58.5%
- inhibition at 0.25 µg/mL (Fusarium graminearum; [26]): 75.7%
- inhibition at 0.5 µg/mL (Fusarium graminearum; [26]): 89.1%
- inhibition at 1 µg/mL (Fusarium graminearum; [26]): 96%
- inhibition at 0.1 µg/mL (Fusarium graminearum; Fusarium graminearum, read-out: inhibition rate on the hyphal growth of the head blight fungi): ~50%
- Average Fungal Colony Diameter F.g (Fusarium graminearum; Metconazole 0.0625 μg/mL, sensitive strains): 52.1 mm
- Average Fungal Colony Diameter F.g (Fusarium graminearum; Metconazole 0.125 μg/mL, sensitive strains): 31.2 mm
- Average Fungal Colony Diameter F.g (Fusarium graminearum; Metconazole 0.25 μg/mL, sensitive strains): 18.3 mm
- Average Fungal Colony Diameter F.g (Fusarium graminearum; Metconazole 0.5 μg/mL, sensitive strains): 8.2 mm
- Average Fungal Colony Diameter F.g (Fusarium graminearum; Metconazole 1.0 μg/mL, sensitive strains): 3.0 mm
- activity of metconazole relative to carbendazim (ED50) (Fusarium graminearum; sensitive strains): about four times
- activity of metconazole relative to phenamacril (ED50) (Fusarium graminearum; sensitive strains): about 1.5 times
- ED50 (Fusarium asiaticum): 0.114 µg/mL and 0.112 µg/mL and 0.116 µg/mL
- inhibition at 0.0625 µg/mL (Fusarium asiaticum; [27]): 30.7%
- inhibition at 0.125 µg/mL (Fusarium asiaticum; [27]): 58.6%
- inhibition at 0.25 µg/mL (Fusarium asiaticum; [27]): 75.6%
- inhibition at 0.5 µg/mL (Fusarium asiaticum; [27]): 89.2%
- inhibition at 1 µg/mL (Fusarium asiaticum; [27]): 95.9%
- DON Biosynthesis Inhibition Rate [1]: 0.66% and −0.34%
- Toxin Production Capability [1]: 87.42 μgDON/g by dry weight of hyphae and 52.50 μgDON/g by dry weight of hyphae
- Incidence Prevention Effect % Powdery Mildew (powdery mildew fungus): 75.0% and 68.5% and 61.0% and 40.0%
- Disease Index Prevention Effect % Powdery Mildew (powdery mildew [2]): 78.7% and 74.3% and 70.2% and 48.6%
- Disease Index Prevention Effect % Rust (rust [3]): 83.8% and 78.4% and 66.7% and 41.9%
- Thousand Kernel Weight [4]: 43.4 g and 42.8 g and 42.4 g and 40.4 g
- Disease Index Prevention Effect % Leaf Blight (leaf blight [5]): 56.2% and 70.4% and 73.7% and 80.0%
- Disease Index Prevention Effect % Rust (rust [6]): 63.0% and 68.2% and 76.1% and 88.2%
- Disease Index Prevention Effect % Head Blight (wheat scab [7]; [28]): 75.1%
- Disease Index Prevention Effect % Head Blight (wheat scab [7]; [29]): 74.9%
- Disease Index Prevention Effect % Head Blight (wheat scab [7]; [30]): 73.2%
- Disease Index Prevention Effect % Head Blight (wheat scab [7]; [31]): 70.1%
- Disease Index Prevention Effect % Head Blight (wheat scab [7]; [32]): 67.2%
- Disease Index Prevention Effect % Head Blight (wheat scab [7]; [33]): 65.1%
- Disease Index Prevention Effect % Head Blight (wheat scab [7]; [34]): 54.8%
- Disease Index Prevention Effect % Head Blight (wheat scab [7]; [35]): 28.3%
- Disease Index Prevention Effect % Leaf Blight (leaf blight [8]; [28]): 80.5%
- Disease Index Prevention Effect % Leaf Blight (leaf blight [8]; [29]): 80.2%
- Disease Index Prevention Effect % Leaf Blight (leaf blight [8]; [30]): 79.6%
- Disease Index Prevention Effect % Leaf Blight (leaf blight [8]; [31]): 75.3%
- Disease Index Prevention Effect % Leaf Blight (leaf blight [8]; [32]): 75.0%
- Disease Index Prevention Effect % Leaf Blight (leaf blight [8]; [33]): 74.3%
- Disease Index Prevention Effect % Leaf Blight (leaf blight [8]; [34]): 70.2%
- Disease Index Prevention Effect % Leaf Blight (leaf blight [8]; [35]): 28.1%
- Disease Index Prevention Effect % Powdery Mildew (powdery mildew [9]; [28]): 80.1%
- Disease Index Prevention Effect % Powdery Mildew (powdery mildew [9]; [29]): 74.6%
- Disease Index Prevention Effect % Powdery Mildew (powdery mildew [9]; [30]): 71.4%
- Disease Index Prevention Effect % Powdery Mildew (powdery mildew [9]; [31]): 63.4%
- Disease Index Prevention Effect % Powdery Mildew (powdery mildew [9]; [32]): 60.8%
- Disease Index Prevention Effect % Powdery Mildew (powdery mildew [9]; [33]): 58.6%
- Disease Index Prevention Effect % Powdery Mildew (powdery mildew [9]; [34]): 51.8%
- Disease Index Prevention Effect % Powdery Mildew (powdery mildew [9]; [35]): 26.4%
- Disease Index Prevention Effect % Rust (rust [10]; [28]): 91.2%
- Disease Index Prevention Effect % Rust (rust [10]; [29]): 88.4%
- Disease Index Prevention Effect % Rust (rust [10]; [30]): 85.6%
- Disease Index Prevention Effect % Rust (rust [10]; [31]): 82.1%
- Disease Index Prevention Effect % Rust (rust [10]; [32]): 82.4%
- Disease Index Prevention Effect % Rust (rust [10]; [33]): 79.4%
- Disease Index Prevention Effect % Rust (rust [10]; [34]): 72.6%
- Disease Index Prevention Effect % Rust (rust [10]; [35]): 30.2%
- Grain Toxin Content (mg of DON/Kg of grain) [11, 28]: 1.11 mg of DON/Kg of grain
- Rate of Decrease in Toxin Content in Grains (%) [11, 28]: 82.8%
- Grain Toxin Content (mg of DON/Kg of grain) [11, 29]: 0.99 mg of DON/Kg of grain
- Rate of Decrease in Toxin Content in Grains (%) [11, 29]: 84.7%
- Grain Toxin Content (mg of DON/Kg of grain) [11, 30]: 1.08 mg of DON/Kg of grain
- Rate of Decrease in Toxin Content in Grains (%) [11, 30]: 83.3%
- Grain Toxin Content (mg of DON/Kg of grain) [11, 31]: 1.34 mg of DON/Kg of grain
- Rate of Decrease in Toxin Content in Grains (%) [11, 31]: 79.3%
- Grain Toxin Content (mg of DON/Kg of grain) [11, 32]: 1.56 mg of DON/Kg of grain
- Rate of Decrease in Toxin Content in Grains (%) [11, 32]: 75.9%
- Grain Toxin Content (mg of DON/Kg of grain) [11, 33]: 1.61 mg of DON/Kg of grain
- Rate of Decrease in Toxin Content in Grains (%) [11, 33]: 75.1%
- Grain Toxin Content (mg of DON/Kg of grain) [11, 34]: 1.89 mg of DON/Kg of grain
- Rate of Decrease in Toxin Content in Grains (%) [11, 34]: 70.7%
- Grain Toxin Content (mg of DON/Kg of grain) [11, 35]: 3.22 mg of DON/Kg of grain
- Rate of Decrease in Toxin Content in Grains (%) [11, 35]: 50.2%
- Disease Index Prevention Effect % Head Blight (wheat scab [12]; [36]): 78.2%
- Disease Index Prevention Effect % Head Blight (wheat scab [12]; [37]): 71.2%
- Disease Index Prevention Effect % Head Blight (wheat scab [12]; [38]): 67.1%
- Disease Index Prevention Effect % Head Blight (wheat scab [12]; [39]): 52.0%
- Disease Index Prevention Effect % Leaf Blight (leaf blight [13]; [36]): 72.8%
- Disease Index Prevention Effect % Leaf Blight (leaf blight [13]; [37]): 70.6%
- Disease Index Prevention Effect % Leaf Blight (leaf blight [13]; [38]): 68.3%
- Disease Index Prevention Effect % Leaf Blight (leaf blight [13]; [39]): 50.8%
- Disease Index Prevention Effect % Powdery Mildew (powdery mildew [14]; [36]): 83.2%
- Disease Index Prevention Effect % Powdery Mildew (powdery mildew [14]; [37]): 75.4%
- Disease Index Prevention Effect % Powdery Mildew (powdery mildew [14]; [38]): 69.2%
- Disease Index Prevention Effect % Powdery Mildew (powdery mildew [14]; [39]): 60.6%
- Disease Index Prevention Effect % Leaf Blight (leaf blight [15]; [40]): 72.8%
- Disease Index Prevention Effect % Leaf Blight (leaf blight [15]; [41]): 70.6%
- Disease Index Prevention Effect % Leaf Blight (leaf blight [15]; [42]): 68.3%
- Disease Index Prevention Effect % Powdery Mildew (powdery mildew [16]; [40]): 83.2%
- Disease Index Prevention Effect % Powdery Mildew (powdery mildew [16]; [42]): 69.2%
- Disease Index Prevention Effect % Rust (rust [17]; [40]): 84.4%
- Disease Index Prevention Effect % Rust (rust [17]; [41]): 77.3%
- Disease Index Prevention Effect % Rust (rust [17]; [42]): 70.6%
- Thousand Kernel Weight [18]: 43.2 g and 42.6 g and 39.8 g
- Disease Index Prevention Effect % Head Blight (wheat scab [19]): 83.4%
- Disease Index Prevention Effect % Leaf Blight (leaf blight [20]): 84.6%
- Disease Index Prevention Effect % Rust (rust [21]): 100%
- Disease Index Prevention Effect % Leaf Blight (leaf blight [22]): 80.6%
- Disease Index Prevention Effect % Powdery Mildew (powdery mildew [23]): 78.2%
- Disease Index Prevention Effect % Rust (rust [24]): 85.0%
- Grain Toxin Content mg of DON/kg of grain [25, 41]: 2.01 mg of DON/kg of grain
- Toxin Reduction Percentage % [25, 41]: 55.5%
- Grain Toxin Content mg of DON/kg of grain [25, 43]: 2.17 mg of DON/kg of grain
- Toxin Reduction Percentage % [25, 43]: 52.0%
- Grain Toxin Content mg of DON/kg of grain [25, 44]: 2.06 mg of DON/kg of grain
- Toxin Reduction Percentage % [25, 44]: 54.4%
- Grain Toxin Content mg of DON/kg of grain [25, 45]: 3.12 mg of DON/kg of grain
- Toxin Reduction Percentage % [25, 45]: 31.0%
